Experiments:
[1] = molecular target: T1, CD73 (Homo sapiens, UniProt P21589); assay: MDA-MB-231 Cell Based CD73 Activity Assay (DMEM); design: endogenous in cells; host or cells: MDA-MB-231-GFP; conditions: MDA-MB-231-GFP cells, DMEM with 10% human plasma, overnight compound treatment, 200 uM AMP, 100 mins
T1 sequence (P21589 27-549): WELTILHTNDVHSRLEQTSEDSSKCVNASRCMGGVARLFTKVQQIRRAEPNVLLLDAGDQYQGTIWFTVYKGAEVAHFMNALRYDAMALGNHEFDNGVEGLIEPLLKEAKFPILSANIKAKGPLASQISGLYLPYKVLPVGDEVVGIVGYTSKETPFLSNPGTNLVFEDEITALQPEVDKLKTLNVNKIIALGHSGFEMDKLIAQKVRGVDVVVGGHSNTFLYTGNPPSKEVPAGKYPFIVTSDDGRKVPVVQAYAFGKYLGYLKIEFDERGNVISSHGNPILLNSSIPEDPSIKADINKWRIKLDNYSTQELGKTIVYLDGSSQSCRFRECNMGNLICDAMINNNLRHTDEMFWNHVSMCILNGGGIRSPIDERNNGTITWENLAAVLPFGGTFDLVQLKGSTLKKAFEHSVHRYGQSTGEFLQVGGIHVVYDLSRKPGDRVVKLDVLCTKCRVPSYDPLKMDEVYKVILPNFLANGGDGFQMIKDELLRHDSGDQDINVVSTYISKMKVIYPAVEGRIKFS
Description: Cells were plated into assay plate with compounds pre-spotted, for an overnight compound treatment. 50 uL of 400 uM AMP (final concentration will be 200 uM) was added using Bio-tek dispenser. Plates were incubated for 100 mins. 20 uL of supernatant was transferred into 384-well NUNC plate pre-filled with 60 ul Quench buffer (80% organic and 20% water+0.1% FA) with internal standard. The plates were spun down at 4500 rpm for 20 mins, then 20 ul of supernatant was transferred to another Nunc plate prefilled with 80 ul of water. The samples were analyzed using Rapid fire.

[2] = molecular target: T1, CD73; assay: CD73 Biochemical IC50 Assay; conditions: CD73 enzyme (R&D system) final 0.3 nM, final AMP 15 uM, 60 mins incubation, Rapid fire
Description: CD73 Biochemical IC50 Assay
Compound serial dilutions were pre-spotted into Thermo Nunc assay plate. 50 μL CD73 enzyme buffer (CD73 purchased from R&D system=0.6 nM, 25 mM Tris, pH 7.4, 5 mM MgCl2, 1 mM NaH2PO4) was added into the assay plate and incubated for 15 mins. […] After incubation for 60 mins, the supernatant 20 uL was transferred into 384-well NUNC plate pre-filled with 60 ul Quench buffer (80% organic and 20% water+0.1% FA) with internal standard. The plate was spun down at 4500 rpm for 20 mins, then 20 μl of supernatant was transferred to another Nunc plate prefilled with 80 μl of water. The samples were run using Rapid fire.

Compound: Cc1nc(-c2c[nH]c(=O)[nH]c2=O)cc(N2C[C@H](Oc3cc4c(cnn4CC(F)(F)F)cc3F)C(F)(F)C2)n1 [Example 23, (S)-6-(3,3-difluoro-4-((5-fluoro-1-(2,2,2-trifluoroethyl)-1H-indazol-6-yl)oxy)pyrrolidin-1-yl)-2-methyl-[4,5′-bipyrimidine]-2′,4′ (1′H,3′H)-dione]
- EC50 [1]: > 50 nM
- IC50 [2]: 14.4 nM

Compound: Cc1cc(O[C@H]2CN(c3cc(-c4c[nH]c(=O)[nH]c4=O)nc(C)n3)CC2(F)F)ccn1 [Example 24, (S)-6-(3,3-difluoro-4-((2-methylpyridin-4-yl)oxy)pyrrolidin-1-yl)-2-methyl-[4,5′-bipyrimidine]-2′,4′ (1′H,3′H)-dione]
- EC50 [1]: > 50 nM
- IC50 [2]: 7.67 nM
